In publication PMC6133293 (SLAS discovery : advancing life sciences R & D, 2018):

Target: G551D-CFTR (Homo sapiens, UniProt P13569, G551D)
Assay: short-circuit current in FRT cells, positive control potentiator
Format: cell-based

Chain of G551D-CFTR (P13569 whole entry G551D): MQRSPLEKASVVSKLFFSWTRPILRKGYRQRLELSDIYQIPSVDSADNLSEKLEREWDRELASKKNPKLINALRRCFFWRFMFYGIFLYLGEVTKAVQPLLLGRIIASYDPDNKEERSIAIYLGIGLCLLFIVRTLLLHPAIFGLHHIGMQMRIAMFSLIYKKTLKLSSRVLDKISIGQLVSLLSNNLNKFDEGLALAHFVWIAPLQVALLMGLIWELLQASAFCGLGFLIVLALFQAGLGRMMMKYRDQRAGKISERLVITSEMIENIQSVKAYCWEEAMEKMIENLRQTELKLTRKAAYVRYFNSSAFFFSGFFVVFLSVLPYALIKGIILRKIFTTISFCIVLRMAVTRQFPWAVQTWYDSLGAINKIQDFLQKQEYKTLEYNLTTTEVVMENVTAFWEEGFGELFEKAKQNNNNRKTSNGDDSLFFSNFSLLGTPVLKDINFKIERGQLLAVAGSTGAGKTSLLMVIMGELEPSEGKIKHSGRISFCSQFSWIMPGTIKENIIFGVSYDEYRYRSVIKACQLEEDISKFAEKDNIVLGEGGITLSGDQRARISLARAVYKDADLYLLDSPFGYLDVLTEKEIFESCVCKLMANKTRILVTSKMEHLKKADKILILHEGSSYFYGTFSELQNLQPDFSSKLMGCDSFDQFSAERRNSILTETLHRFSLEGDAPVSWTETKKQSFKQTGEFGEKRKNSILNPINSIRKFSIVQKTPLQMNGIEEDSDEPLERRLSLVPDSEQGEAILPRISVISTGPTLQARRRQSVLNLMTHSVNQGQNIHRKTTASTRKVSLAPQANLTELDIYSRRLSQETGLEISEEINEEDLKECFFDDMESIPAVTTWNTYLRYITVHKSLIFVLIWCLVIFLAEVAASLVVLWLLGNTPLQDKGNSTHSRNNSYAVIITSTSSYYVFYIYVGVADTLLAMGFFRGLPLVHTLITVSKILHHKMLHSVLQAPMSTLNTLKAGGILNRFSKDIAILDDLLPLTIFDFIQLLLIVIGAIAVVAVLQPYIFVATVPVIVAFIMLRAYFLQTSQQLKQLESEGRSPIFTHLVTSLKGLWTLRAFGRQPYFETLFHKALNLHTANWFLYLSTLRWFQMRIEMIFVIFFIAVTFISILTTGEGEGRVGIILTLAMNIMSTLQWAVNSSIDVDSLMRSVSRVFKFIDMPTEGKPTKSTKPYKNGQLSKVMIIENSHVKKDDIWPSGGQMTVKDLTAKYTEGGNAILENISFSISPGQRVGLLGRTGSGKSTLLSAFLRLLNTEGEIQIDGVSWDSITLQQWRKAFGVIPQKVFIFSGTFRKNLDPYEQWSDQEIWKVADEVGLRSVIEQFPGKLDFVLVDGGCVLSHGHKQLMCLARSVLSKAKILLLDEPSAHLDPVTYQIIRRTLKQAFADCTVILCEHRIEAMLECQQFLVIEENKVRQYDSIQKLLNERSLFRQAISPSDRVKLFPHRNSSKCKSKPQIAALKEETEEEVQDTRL

Structure (SMILES): CC(C)(C)c1cc(C(C)(C)C)c(NC(=O)c2c[nH]c3ccccc3c2=O)cc1O [VX-770]
- short-circuit current in FRT cells, positive control potentiator: A-01 did not activate G551D-CFTR at high concentration, with VX-770 shown as the positive control
